TGI data for 4 compounds are collected here from PubChem BioAssay (NCI).

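Five compound concentrations were applied to cells in 96-well plates for 48 hours; endpoints were derived by simple linear interpolation of the resulting dose-response curve. TGI marks complete inhibition of growth.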

The test system of one experiment is SK-MEL-28 melanoma. The experiment in a line: inhibition of tumour cell growth, NCI panel, 48 h.
For the compound `O=C1C=CC(=O)c2c1ccc1c3ccccc3n(CCCCCCCCCCCCn3c4ccccc4c4ccc5c(c43)C(=O)C=CC5=O)c21`, the TGI is > 100 µM.

`CNC(=S)OCCC(C)CCCC(C)C` (stereo not drawn) returned a TGI of 41 µM.

In the next experiment the test system is SK-MEL-5 melanoma. As to the kind of experiment: inhibition of tumour cell growth, NCI panel, 48 h.
Regarding `CNS(=O)(=O)NNS(=O)(=O)c1ccccc1`, the TGI was > 100 µM.

With `O=C1C=CC(=O)c2c1ccc1c3ccccc3n(CCCCCCCCCCCCn3c4ccccc4c4ccc5c(c43)C(=O)C=CC5=O)c21`, the TGI is > 100 µM.

Regarding `CNC(=S)OCCC(C)CCCC(C)C` (stereo not drawn), the TGI turned out to be 31.6 µM.

Another experiment relates to SK-OV-3 ovarian. As to the kind of experiment: inhibition of tumour cell growth, NCI panel, 48 h.
Regarding `CNS(=O)(=O)NNS(=O)(=O)c1ccccc1`, the TGI is > 100 µM.

For `OCC1=CC(NC2CC(CO)C(O)C(O)C2O)C(O)C(O)C1O` (stereo not drawn), the TGI was > 100 µM.

With `O=C1C=CC(=O)c2c1ccc1c3ccccc3n(CCCCCCCCCCCCn3c4ccccc4c4ccc5c(c43)C(=O)C=CC5=O)c21`, the TGI was > 100 µM.

`CNC(=S)OCCC(C)CCCC(C)C` (stereo not drawn) yielded a TGI of 41.6 µM.

Another experiment relates to SN12C renal. The experiment in a line: inhibition of tumour cell growth, NCI panel, 48 h.
In the case of `CNS(=O)(=O)NNS(=O)(=O)c1ccccc1`, the TGI is > 100 µM.

As to `OCC1=CC(NC2CC(CO)C(O)C(O)C2O)C(O)C(O)C1O` (stereo not drawn), the TGI was > 100 µM.

For the compound `O=C1C=CC(=O)c2c1ccc1c3ccccc3n(CCCCCCCCCCCCn3c4ccccc4c4ccc5c(c43)C(=O)C=CC5=O)c21`, the TGI is > 100 µM.

The compound `CNC(=S)OCCC(C)CCCC(C)C` (stereo not drawn) returned a TGI of 30.3 µM.

Another experiment relates to SNB-19 CNS. The experiment in a line: inhibition of tumour cell growth, NCI panel, 48 h.
`CNS(=O)(=O)NNS(=O)(=O)c1ccccc1`: the TGI is > 100 µM.

With `OCC1=CC(NC2CC(CO)C(O)C(O)C2O)C(O)C(O)C1O` (stereo not drawn), the TGI was > 100 µM.

As to `O=C1C=CC(=O)c2c1ccc1c3ccccc3n(CCCCCCCCCCCCn3c4ccccc4c4ccc5c(c43)C(=O)C=CC5=O)c21`, the TGI was > 100 µM.

For the compound `CNC(=S)OCCC(C)CCCC(C)C` (stereo not drawn), the TGI was 33.4 µM.

The next experiment deals with SNB-75 CNS. As to the kind of experiment: inhibition of tumour cell growth, NCI panel, 48 h.
Turning to `CNS(=O)(=O)NNS(=O)(=O)c1ccccc1`, the TGI is > 100 µM.

As to `OCC1=CC(NC2CC(CO)C(O)C(O)C2O)C(O)C(O)C1O` (stereo not drawn), the TGI was > 100 µM.

For the compound `O=C1C=CC(=O)c2c1ccc1c3ccccc3n(CCCCCCCCCCCCn3c4ccccc4c4ccc5c(c43)C(=O)C=CC5=O)c21`, the TGI is > 100 µM.

The compound `CNC(=S)OCCC(C)CCCC(C)C` (stereo not drawn) returned a TGI of 40.6 µM.

A further experiment has as its system SNB-78 CNS. As to the kind of experiment: inhibition of tumour cell growth, NCI panel, 48 h.
For `CNC(=S)OCCC(C)CCCC(C)C` (stereo not drawn), the TGI came to 34.5 µM.

Another experiment deals with SR leukemia. As to the kind of experiment: inhibition of tumour cell growth, NCI panel, 48 h.
Regarding `CNS(=O)(=O)NNS(=O)(=O)c1ccccc1`, the TGI is > 100 µM.

For `O=C1C=CC(=O)c2c1ccc1c3ccccc3n(CCCCCCCCCCCCn3c4ccccc4c4ccc5c(c43)C(=O)C=CC5=O)c21`, the TGI is > 100 µM.

Take `CNC(=S)OCCC(C)CCCC(C)C` (stereo not drawn): the TGI is 31.9 µM.

The next experiment has as its system SW-620 colon. The experiment in a line: inhibition of tumour cell growth, NCI panel, 48 h.
`CNS(=O)(=O)NNS(=O)(=O)c1ccccc1`: the TGI was > 100 µM.

Turning to `OCC1=CC(NC2CC(CO)C(O)C(O)C2O)C(O)C(O)C1O` (stereo not drawn), the TGI is > 100 µM.

`O=C1C=CC(=O)c2c1ccc1c3ccccc3n(CCCCCCCCCCCCn3c4ccccc4c4ccc5c(c43)C(=O)C=CC5=O)c21`: the TGI is > 100 µM.

Compound `CNC(=S)OCCC(C)CCCC(C)C` (stereo not drawn) had a TGI of 30.7 µM.

In a further experiment the test system is T-47D breast. As to the kind of experiment: inhibition of tumour cell growth, NCI panel, 48 h.
Regarding `O=C1C=CC(=O)c2c1ccc1c3ccccc3n(CCCCCCCCCCCCn3c4ccccc4c4ccc5c(c43)C(=O)C=CC5=O)c21`, the TGI was > 100 µM.

The subject of the next experiment is TK-10 renal. The experiment in a line: inhibition of tumour cell growth, NCI panel, 48 h.
In the case of `CNS(=O)(=O)NNS(=O)(=O)c1ccccc1`, the TGI is > 100 µM.

Regarding `OCC1=CC(NC2CC(CO)C(O)C(O)C2O)C(O)C(O)C1O` (stereo not drawn), the TGI was > 100 µM.

With `O=C1C=CC(=O)c2c1ccc1c3ccccc3n(CCCCCCCCCCCCn3c4ccccc4c4ccc5c(c43)C(=O)C=CC5=O)c21`, the TGI is > 100 µM.

Take `CNC(=S)OCCC(C)CCCC(C)C` (stereo not drawn): the TGI turned out to be 25.5 µM.

A further experiment relates to U251 CNS. As to the kind of experiment: inhibition of tumour cell growth, NCI panel, 48 h.
As to `CNS(=O)(=O)NNS(=O)(=O)c1ccccc1`, the TGI was > 100 µM.

Regarding `OCC1=CC(NC2CC(CO)C(O)C(O)C2O)C(O)C(O)C1O` (stereo not drawn), the TGI was > 100 µM.

Turning to `O=C1C=CC(=O)c2c1ccc1c3ccccc3n(CCCCCCCCCCCCn3c4ccccc4c4ccc5c(c43)C(=O)C=CC5=O)c21`, the TGI is > 100 µM.

`CNC(=S)OCCC(C)CCCC(C)C` (stereo not drawn) displayed a TGI of 30.1 µM.

For another experiment, the system named is UACC-257 melanoma. The experiment in a line: inhibition of tumour cell growth, NCI panel, 48 h.
For `CNS(=O)(=O)NNS(=O)(=O)c1ccccc1`, the TGI was > 100 µM.

Take `OCC1=CC(NC2CC(CO)C(O)C(O)C2O)C(O)C(O)C1O` (stereo not drawn): the TGI was > 100 µM.

Take `O=C1C=CC(=O)c2c1ccc1c3ccccc3n(CCCCCCCCCCCCn3c4ccccc4c4ccc5c(c43)C(=O)C=CC5=O)c21`: the TGI is > 100 µM.

Regarding `CNC(=S)OCCC(C)CCCC(C)C` (stereo not drawn), the TGI was 30.1 µM.

A further experiment deals with UACC-62 melanoma. As to the kind of experiment: inhibition of tumour cell growth, NCI panel, 48 h.
As for `CNS(=O)(=O)NNS(=O)(=O)c1ccccc1`, the TGI is > 100 µM.

For the compound `OCC1=CC(NC2CC(CO)C(O)C(O)C2O)C(O)C(O)C1O` (stereo not drawn), the TGI is > 100 µM.

`O=C1C=CC(=O)c2c1ccc1c3ccccc3n(CCCCCCCCCCCCn3c4ccccc4c4ccc5c(c43)C(=O)C=CC5=O)c21`: the TGI was > 100 µM.

The compound `CNC(=S)OCCC(C)CCCC(C)C` (stereo not drawn) showed a TGI of 29.1 µM.

In a further experiment the test system is UO-31 renal. The experiment in a line: inhibition of tumour cell growth, NCI panel, 48 h.
For `CNS(=O)(=O)NNS(=O)(=O)c1ccccc1`, the TGI was > 100 µM.

`OCC1=CC(NC2CC(CO)C(O)C(O)C2O)C(O)C(O)C1O` (stereo not drawn): the TGI was > 100 µM.

As to `O=C1C=CC(=O)c2c1ccc1c3ccccc3n(CCCCCCCCCCCCn3c4ccccc4c4ccc5c(c43)C(=O)C=CC5=O)c21`, the TGI was > 100 µM.

Regarding `CNC(=S)OCCC(C)CCCC(C)C` (stereo not drawn), the TGI turned out to be 20.7 µM.

A further experiment relates to XF 498 CNS. The experiment in a line: inhibition of tumour cell growth, NCI panel, 48 h.
In the case of `CNS(=O)(=O)NNS(=O)(=O)c1ccccc1`, the TGI was > 100 µM.

As for `OCC1=CC(NC2CC(CO)C(O)C(O)C2O)C(O)C(O)C1O` (stereo not drawn), the TGI was > 100 µM.

`CNC(=S)OCCC(C)CCCC(C)C` (stereo not drawn): the TGI is 31.1 µM.
